ChEMBL document CHEMBL1201862, “PubChem BioAssay data set” (2004)
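How tested: cells in 96-well plates exposed to compound for 48 hours at five concentrations. GI50: concentration for 50% inhibition of growth.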 The source made the active and inactive calls. No stated cut-off is given here; in the data, active = GI50 up to about 1.1 µM and inactive = higher.

Legend:
Experiment in all cases: NCI-60 cell line screen, 48 h
SF-539 = tested on: SF-539
IGROV-1 = tested on: IGROV-1
UACC-62 = tested on: UACC-62
RXF 631 = tested on: RXF 631
DMS-114 = tested on: DMS-114
SW-620 = tested on: SW-620
A549 = tested on: A549
LXFL 529 = tested on: LXFL 529
SK-MEL-2 = tested on: SK-MEL-2
SK-MEL-5 = tested on: SK-MEL-5
NCI-H522 = tested on: NCI-H522
MOLT-4 = tested on: MOLT-4
SF-295 = tested on: SF-295
SK-OV-3 = tested on: SK-OV-3
DMS-273 = tested on: DMS-273
NCI-H226 = tested on: NCI-H226
UO-31 = tested on: UO-31
HCT-116 = tested on: HCT-116
RPMI-8226 = tested on: RPMI-8226
SK-MEL-28 = tested on: SK-MEL-28
OVCAR-5 = tested on: OVCAR-5
U-251 = tested on: U-251
EKVX = tested on: EKVX
ACHN = tested on: ACHN
HCC 2998 = tested on: HCC 2998
CCRF-CEM = tested on: CCRF-CEM
SN12C = tested on: SN12C
SNB-78 = tested on: SNB-78
Malme-3M = tested on: Malme-3M
M19-MEL = tested on: M19-MEL
TK-10 = tested on: TK-10
HCT-15 = tested on: HCT-15
786-0 = tested on: 786-0
SNB-19 = tested on: SNB-19
HOP-62 = tested on: HOP-62
M14 = tested on: M14
HL-60 = tested on: HL-60
OVCAR-3 = tested on: OVCAR-3
LOX IMVI = tested on: LOX IMVI
SR = tested on: SR
RXF 393 = tested on: RXF 393
UACC-257 = tested on: UACC-257
SNB-75 = tested on: SNB-75
K562 = tested on: K562
XF498 = tested on: XF498
KM12 = tested on: KM12
COLO 205 = tested on: COLO 205
OVCAR-8 = tested on: OVCAR-8
DLD-1 = tested on: DLD-1
SF-268 = tested on: SF-268
OVCAR-4 = tested on: OVCAR-4
NCI-H23 = tested on: NCI-H23
KM-20L2 = tested on: KM-20L2
HT-29 = tested on: HT-29
A498 = tested on: A498
HOP-92 = tested on: HOP-92
NCI-H460 = tested on: NCI-H460
CAKI-1 = tested on: CAKI-1
HOP-18 = tested on: HOP-18

COC(=O)C1(C)CCc2c(OC)ccc(OC)c2C1=O (stereo not given)
GI50 (SF-539): > 100 µM (inactive)
GI50 (IGROV-1): > 100 µM (inactive)
GI50 (UACC-62): > 100 µM (inactive)
GI50 (RXF 631): > 100 µM (inactive)
GI50 (DMS-114): > 100 µM (inactive)
GI50 (SW-620): > 100 µM (inactive)
GI50 (A549): > 100 µM (inactive)
GI50 (LXFL 529): > 100 µM (inactive)
GI50 (SK-MEL-2): > 100 µM (inactive)
GI50 (SK-MEL-5): > 100 µM (inactive)
GI50 (NCI-H522): > 100 µM (inactive)
GI50 (MOLT-4): > 100 µM (inactive)
GI50 (SF-295): > 100 µM (inactive)
GI50 (SK-OV-3): > 100 µM (inactive)
GI50 (DMS-273): > 100 µM (inactive)
GI50 (NCI-H226): > 100 µM (inactive)
GI50 (UO-31): 76.2 µM (inactive)
GI50 (HCT-116): > 100 µM (inactive)
GI50 (RPMI-8226): > 100 µM (inactive)
GI50 (SK-MEL-28): > 100 µM (inactive)
GI50 (OVCAR-5): > 100 µM (inactive)
GI50 (U-251): > 100 µM (inactive)
GI50 (EKVX): > 100 µM (inactive)
GI50 (ACHN): > 100 µM (inactive)
GI50 (HCC 2998): > 100 µM (inactive)
GI50 (CCRF-CEM): > 100 µM (inactive)
GI50 (SN12C): > 100 µM (inactive)
GI50 (SNB-78): > 100 µM (inactive)
GI50 (Malme-3M): > 100 µM (inactive)
GI50 (M19-MEL): > 100 µM (inactive)
GI50 (TK-10): > 100 µM (inactive)
GI50 (HCT-15): > 100 µM
GI50 (786-0): > 100 µM (inactive)
GI50 (SNB-19): > 100 µM (inactive)
GI50 (HOP-62): > 100 µM (inactive)
GI50 (M14): > 100 µM (inactive)
GI50 (HL-60): > 100 µM (inactive)
GI50 (OVCAR-3): > 100 µM (inactive)
GI50 (LOX IMVI): > 100 µM (inactive)
GI50 (SR): > 100 µM (inactive)
GI50 (RXF 393): > 100 µM (inactive)
GI50 (UACC-257): > 100 µM (inactive)
GI50 (SNB-75): 29.8 µM (inactive)
GI50 (K562): > 100 µM (inactive)
GI50 (XF498): > 100 µM (inactive)
GI50 (KM12): > 100 µM (inactive)
GI50 (COLO 205): > 100 µM (inactive)
GI50 (OVCAR-8): > 100 µM (inactive)
GI50 (DLD-1): > 100 µM (inactive)
GI50 (SF-268): > 100 µM (inactive)
GI50 (OVCAR-4): > 100 µM (inactive)
GI50 (NCI-H23): > 100 µM (inactive)

CCc1cccc(C)c1NC(=O)CCc1nnc2s/c(=C\c3cccc4ccccc34)c(=O)n12
GI50 (SF-539): > 100 µM (inactive)
GI50 (IGROV-1): > 100 µM (inactive)
GI50 (UACC-62): > 100 µM (inactive)
GI50 (KM-20L2): > 100 µM (inactive)
GI50 (HT-29): > 100 µM (inactive)
GI50 (RXF 631): > 100 µM (inactive)
GI50 (DMS-114): 36 µM (inactive)
GI50 (SW-620): > 100 µM (inactive)
GI50 (A549): > 100 µM (inactive)
GI50 (LXFL 529): 73.3 µM (inactive)
GI50 (SK-MEL-2): > 100 µM (inactive)
GI50 (SK-MEL-5): > 100 µM (inactive)
GI50 (NCI-H522): > 100 µM (inactive)
GI50 (MOLT-4): 17.9 µM (inactive)
GI50 (A498): > 100 µM (inactive)
GI50 (SF-295): 71.1 µM (inactive)
GI50 (SK-OV-3): > 100 µM (inactive)
GI50 (DMS-273): 61.4 µM (inactive)
GI50 (NCI-H226): > 100 µM (inactive)
GI50 (UO-31): > 100 µM (inactive)
GI50 (HCT-116): 57.1 µM (inactive)
GI50 (RPMI-8226): 23.8 µM (inactive)
GI50 (SK-MEL-28): > 100 µM (inactive)
GI50 (HOP-92): > 100 µM (inactive)
GI50 (OVCAR-5): > 100 µM (inactive)
GI50 (U-251): > 100 µM (inactive)
GI50 (NCI-H460): > 100 µM (inactive)
GI50 (ACHN): > 100 µM (inactive)
GI50 (HCC 2998): > 100 µM (inactive)
GI50 (CCRF-CEM): 92.9 µM (inactive)
GI50 (SN12C): > 100 µM (inactive)
GI50 (SNB-78): > 100 µM (inactive)
GI50 (Malme-3M): > 100 µM (inactive)
GI50 (M19-MEL): > 100 µM (inactive)
GI50 (TK-10): > 100 µM (inactive)
GI50 (HCT-15): 89.1 µM
GI50 (786-0): > 100 µM (inactive)
GI50 (SNB-19): > 100 µM (inactive)
GI50 (HOP-62): > 100 µM (inactive)
GI50 (M14): 45.6 µM (inactive)
GI50 (HL-60): 44.6 µM (inactive)
GI50 (OVCAR-3): 78 µM (inactive)
GI50 (CAKI-1): > 100 µM (inactive)
GI50 (LOX IMVI): 80.7 µM (inactive)
GI50 (RXF 393): > 100 µM (inactive)
GI50 (UACC-257): > 100 µM (inactive)
GI50 (SNB-75): > 100 µM (inactive)
GI50 (K562): 30.3 µM (inactive)
GI50 (XF498): > 100 µM (inactive)
GI50 (KM12): 92.7 µM (inactive)
GI50 (COLO 205): > 100 µM (inactive)
GI50 (OVCAR-8): > 100 µM (inactive)
GI50 (DLD-1): 60 µM (inactive)
GI50 (SF-268): > 100 µM (inactive)
GI50 (OVCAR-4): > 100 µM (inactive)
GI50 (NCI-H23): > 100 µM (inactive)

Cc1cc(Cl)ccc1N1C(=O)C(=O)C(c2nc3ccccc3s2)/C(=N\NC(=O)c2ccccc2O)C1=O (stereo not given)
GI50 (SF-539): > 100 µM (inactive)
GI50 (IGROV-1): > 100 µM (inactive)
GI50 (UACC-62): > 100 µM (inactive)
GI50 (KM-20L2): > 100 µM (inactive)
GI50 (HT-29): > 100 µM (inactive)
GI50 (RXF 631): > 100 µM (inactive)
GI50 (DMS-114): > 100 µM (inactive)
GI50 (SW-620): > 100 µM (inactive)
GI50 (A549): > 100 µM (inactive)
GI50 (LXFL 529): > 100 µM (inactive)
GI50 (SK-MEL-2): > 100 µM (inactive)
GI50 (SK-MEL-5): > 100 µM (inactive)
GI50 (NCI-H522): > 100 µM (inactive)
GI50 (A498): > 100 µM (inactive)
GI50 (SF-295): > 100 µM (inactive)
GI50 (SK-OV-3): > 100 µM (inactive)
GI50 (DMS-273): > 100 µM (inactive)
GI50 (NCI-H226): > 100 µM (inactive)
GI50 (UO-31): > 100 µM (inactive)
GI50 (HCT-116): > 100 µM (inactive)
GI50 (RPMI-8226): > 100 µM (inactive)
GI50 (SK-MEL-28): > 100 µM (inactive)
GI50 (HOP-92): 46.7 µM (inactive)
GI50 (OVCAR-5): > 100 µM (inactive)
GI50 (U-251): > 100 µM (inactive)
GI50 (EKVX): > 100 µM (inactive)
GI50 (NCI-H460): > 100 µM (inactive)
GI50 (ACHN): > 100 µM (inactive)
GI50 (HCC 2998): > 100 µM (inactive)
GI50 (CCRF-CEM): > 100 µM (inactive)
GI50 (SN12C): > 100 µM (inactive)
GI50 (SNB-78): > 100 µM (inactive)
GI50 (Malme-3M): > 100 µM (inactive)
GI50 (M19-MEL): > 100 µM (inactive)
GI50 (TK-10): > 100 µM (inactive)
GI50 (HCT-15): > 100 µM
GI50 (786-0): > 100 µM (inactive)
GI50 (SNB-19): > 100 µM (inactive)
GI50 (HOP-62): > 100 µM (inactive)
GI50 (M14): > 100 µM (inactive)
GI50 (HL-60): > 100 µM (inactive)
GI50 (OVCAR-3): > 100 µM (inactive)
GI50 (CAKI-1): > 100 µM (inactive)
GI50 (HOP-18): > 100 µM (inactive)
GI50 (LOX IMVI): > 100 µM (inactive)
GI50 (SR): > 100 µM (inactive)
GI50 (RXF 393): > 100 µM (inactive)
GI50 (UACC-257): > 100 µM (inactive)
GI50 (SNB-75): > 100 µM (inactive)
GI50 (K562): > 100 µM (inactive)
GI50 (KM12): > 100 µM (inactive)
GI50 (COLO 205): > 100 µM (inactive)
GI50 (OVCAR-8): > 100 µM (inactive)
GI50 (DLD-1): > 100 µM (inactive)
GI50 (SF-268): > 100 µM (inactive)
GI50 (OVCAR-4): > 100 µM (inactive)
GI50 (NCI-H23): > 100 µM (inactive)
